For orientation: IC50 means the concentration at which inhibition is half-maximal.

This note sets out measurements from US9458176B2, “Tetrahydroimidazo(1,5-D)[1,4]oxazepine derivative” (Eisai R&D Management Co., Ltd., priority 2013, dated 2016).

Chain of human mGluR2 (Q14416 19-872): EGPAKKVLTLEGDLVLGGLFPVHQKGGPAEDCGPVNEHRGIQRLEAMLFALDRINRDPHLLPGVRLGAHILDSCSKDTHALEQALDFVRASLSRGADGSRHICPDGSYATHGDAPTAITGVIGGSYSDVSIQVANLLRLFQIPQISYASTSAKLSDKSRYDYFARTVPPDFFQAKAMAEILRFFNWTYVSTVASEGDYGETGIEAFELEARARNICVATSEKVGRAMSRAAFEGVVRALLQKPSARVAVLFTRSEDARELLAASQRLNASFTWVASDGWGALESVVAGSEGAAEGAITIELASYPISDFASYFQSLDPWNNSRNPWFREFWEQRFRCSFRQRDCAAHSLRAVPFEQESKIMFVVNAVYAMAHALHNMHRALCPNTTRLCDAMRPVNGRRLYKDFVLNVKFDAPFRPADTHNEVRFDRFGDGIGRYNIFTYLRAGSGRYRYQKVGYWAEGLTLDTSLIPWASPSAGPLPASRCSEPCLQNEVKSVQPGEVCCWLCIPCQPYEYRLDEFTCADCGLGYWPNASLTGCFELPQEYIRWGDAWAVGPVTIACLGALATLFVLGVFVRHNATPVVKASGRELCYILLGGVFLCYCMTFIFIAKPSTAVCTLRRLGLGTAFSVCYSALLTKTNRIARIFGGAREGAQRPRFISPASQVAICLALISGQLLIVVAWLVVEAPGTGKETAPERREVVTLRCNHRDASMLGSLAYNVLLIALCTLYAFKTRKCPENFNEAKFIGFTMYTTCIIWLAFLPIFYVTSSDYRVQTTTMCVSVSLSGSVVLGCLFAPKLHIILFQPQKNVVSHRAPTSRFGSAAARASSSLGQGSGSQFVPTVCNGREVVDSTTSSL

This assay has as its target human mGluR2 (Homo sapiens (Human), UniProt Q14416). Briefly: [35S]GTPγS binding assay (Affinity to mGluR2). The following applies: cell membrane fraction of HEK293 cells stably expressing human mGluR2; glutamic acid 10 μM. It is filed as biochemical. As to the method:
(Preparation of Cell Membrane Fraction of HEK293 Cells Stably Expressing Human Metabotropic Glutamate Receptor 2 (mGluR2))
HEK293 cells stably expressing human mGluR2 and human glutamate transporter SLC1A3 were cultured in a Dulbecco's modified Eagle's medium with 10% fetal bovine serum (50 units/mL of penicillin, 50 μg/mL of streptomycin, 60 μg/mL of geneticin, 400 μg/mL of hygromycin B and 2 mM of glutamine) at 37° C. under 5% CO2. Confluent cell cultures were washed twice with PBS(−), and then scraped off with a cell scraper, and subjected to centrifugal separation at 4° C. and 1500 rpm for 5 minutes for collecting cells. The centrifuged sediment (cell pellet) was homogenized in a 20 mM HEPES buffer containing 10 mM EDTA (pH 7.4) by using sonicator and centrifuged at 4° C. and 1500×g for 30 minutes. The supernatant (soluble fraction) was subjected to the centrifugal separation at 4° C. and 40,000×g for 30 minutes, and thus, insoluble fraction was obtained. After additional centrifugally washing the obtained fraction with 20 mM HEPES buffer containing 10 mM EDTA (pH 7.4), the pellet was centrifugally suspended with a 20 mM HEPES buffer containing 0.1 mM EDTA, and the cell membrane fraction was obtained by the centrifugal separation at 4° C. and 40,000×g for 30 minutes. The thus obtained cell membrane fraction was suspended in a 20 mM HEPES buffer containing 0.1 mM EDTA in a protein concentration of 3 mg/mL, which was stored at −80° C.
([^35S]GTPγS Binding Assay)
The frozen cell membrane fraction prepared as described above was thawed before use, and the resultant was diluted with a buffer for a binding assay (final concentrations: 20 mM HEPES, 100 mM NaCl, 1 mM MgCl2, 3 μM GDP, 300 μg/mL saponin, 0.1% BSA). The compound of each example was added to a cell membrane fraction containing 1.8 to 3 μg/assay of membrane protein on a plate, followed by incubation at room temperature for 30 minutes. Thereafter, with glutamic acid (in a final concentration of 10 μM) added thereto, incubation was performed at room temperature for 15 minutes, and thereafter, [^35S]GTPγS (in a final concentration of 0.8 kBq) and 588 μg WGA-SPA beads were added thereto, followed by incubation at room temperature for 1 hour. After the incubation, the plate was subjected to the centrifugal separation at 2,500 rpm and room temperature, and then, membrane cell binding radioactivity was measured with a top count.
A [^35S]GTPγS binding amount obtained by performing the above-described reaction in the absence of glutamic acid was defined as nonspecific binding, and a difference from a [^35S]GTPγS binding amount obtained in the presence of glutamic acid was defined as specific binding. On the basis of ratios of inhibiting the specific binding at various concentrations of the compounds of the respective examples, inhibition curves were obtained. Concentrations of the compounds of the respective examples at which the specific [^35S]GTPγS binding amount was suppressed by 50% (IC50 values) were calculated on the basis of the inhibition curves and shown in Tables 8 and 9.
On the technique in general: GTPγS resists hydrolysis and so accumulates on activated G proteins.
Compound `COc1cc(-c2nc(-c3cc(C)nc(C(F)F)c3)c3n2C[C@@H](CF)OCC3)ccc1C(F)(F)F` [Example 31, (S)-1-(2-(difluoromethyl)-6-methylpyridin-4-yl)-6-(fluoromethyl)-3-(3-methoxy-4-(trifluoromethyl)phenyl)-5,6,8,9-tetrahydroimidazo[1,5-d][1,4]oxazepine] displayed an IC50 of 7.9 nM. This counts as single-digit nanomolar.

In turn, `Cc1cc(-c2nc(-c3ccc(OC(F)F)c(Cl)c3)n3c2CCO[C@H](C)C3)cc(C)n1` [Example 32, (R)-3-(3-chloro-4-(difluoromethoxy)phenyl)-1-(2,6-dimethylpyridin-4-yl)-6-methyl-5,6,8,9-tetrahydroimidazo[1,5-d][1,4]oxazepine] had an IC50 of 2.8 nM. The result for `COc1ccc(-c2nc(-c3cc(C)nc(C)c3)c3n2C[C@@H](C)OCC3)cc1Cl` [Example 33, (R)-3-(3-chloro-4-methoxyphenyl)-1-(2,6-dimethylpyridin-4-yl)-6-methyl-5,6,8,9-tetrahydroimidazo[1,5-d][1,4]oxazepine] reads 5 nM; that for `CCOc1ccc(-c2nc(-c3cc(C)nc(C)c3)c3n2C[C@@H](C)OCC3)cc1Cl` [Example 34, (R)-3-(3-chloro-4-ethoxyphenyl)-1-(2,6-dimethylpyridin-4-yl)-6-methyl-5,6,8,9-tetrahydroimidazo[1,5-d][1,4]oxazepine], 2.8 nM. Compound `Cc1cc(-c2nc(-c3ccc(OC(C)C)c(Cl)c3)n3c2CCO[C@H](C)C3)cc(C)n1` [Example 35, (R)-3-(3-chloro-4-isopropoxyphenyl)-1-(2,6-dimethylpyridin-4-yl)-6-methyl-5,6,8,9-tetrahydroimidazo[1,5-d][1,4]oxazepine] had an IC50 of 2.7 nM.

`COc1ccc(-c2nc(-c3cc(C)nc(C)c3)c3n2C[C@@H](CF)OCC3)cc1Cl` [Example 36, (S)-3-(3-chloro-4-methoxyphenyl)-1-(2,6-dimethylpyridin-4-yl)-6-(fluoromethyl)-5,6,8,9-tetrahydroimidazo[1,5-d][1,4]oxazepine] had an IC50 of 10 nM.

Regarding `CCOc1ccc(-c2nc(-c3cc(C)nc(C)c3)c3n2C[C@@H](CF)OCC3)cc1Cl` [Example 37, (S)-3-(3-chloro-4-ethoxyphenyl)-1-(2,6-dimethylpyridin-4-yl)-6-(fluoromethyl)-5,6,8,9-tetrahydroimidazo[1,5-d][1,4]oxazepine], the IC50 was 6 nM.

Compound `Cc1cc(-c2nc(-c3ccc(OC(C)C)c(Cl)c3)n3c2CCO[C@H](CF)C3)cc(C)n1` [Example 38, (S)-3-(3-chloro-4-isopropoxyphenyl)-1-(2,6-dimethylpyridin-4-yl)-6-(fluoromethyl)-5,6,8,9-tetrahydroimidazo[1,5-d][1,4]oxazepine] showed an IC50 of 5.4 nM. `Cc1cc(-c2nc(-c3ccc(OC(F)(F)F)c(CF)c3)n3c2CCO[C@H](C)C3)ccn1` [Example 39, (R)-3-(3-(fluoromethyl)-4-(trifluoromethoxy)phenyl)-6-methyl-1-(2-methylpyridin-4-yl)-5,6,8,9-tetrahydroimidazo[1,5-d][1,4]oxazepine]: the half-maximal inhibitory concentration (IC50) amounted to 2.5 nM. The result for `Cc1cc(-c2nc(-c3ccc(OC(F)F)c(C)c3)n3c2CCO[C@H](CF)C3)ccn1` [Example 40, (S)-3-(4-(difluoromethoxy)-3-methylphenyl)-6-(fluoromethyl)-1-(2-methylpyridin-4-yl)-5,6,8,9-tetrahydroimidazo[1,5-d][1,4]oxazepine] reads 4.7 nM; that for `COc1cc(-c2nc(-c3ccnc(C)c3)c3n2C[C@@H](CF)OCC3)ccc1C(F)(F)F` [Example 41, (S)-6-(fluoromethyl)-3-(3-methoxy-4-(trifluoromethyl)phenyl)-1-(2-methylpyridin-4-yl)-5,6,8,9-tetrahydroimidazo[1,5-d][1,4]oxazepine], 4.1 nM; that for `Cc1cc(-c2nc(-c3ccc(OC(F)(F)F)cc3)n3c2CCOCC3)cc(C)n1` [Example 42], 45.3 nM. The result for `Cc1cc(-c2nc(-c3ccc(OC(F)(F)F)cc3)n3c2CCOCC3)ccn1` [Example 43] reads 90 nM. The result for `Cc1cc(-c2nc(-c3ccc(F)c(OC(F)(F)F)c3)n3c2CCOCC3)cc(C)n1` [Example 45] reads 73.9 nM; that for `COc1cc(-c2nc(-c3cc(C)nc(C)c3)c3n2CCOCC3)ccc1C` [Example 46], 65.6 nM; that for `COc1cc(-c2nc(-c3ccnc(CO)c3)c3n2C[C@@H](C)OCC3)ccc1Cl` [Example 47], 242 nM. Compound `Cc1cc(-c2nc(-c3ccc(Cl)c(OC(F)(F)F)c3)n3c2CCOCC3)cc(C)n1` [Example 48] gave an IC50 of 40 nM.

`Cc1cc(-c2nc(-c3ccc(OCc4ccccc4)c(F)c3)n3c2CCOCC3)cc(C)n1` [Example 49] showed a 50% inhibitory concentration (IC50) of 11.4 nM. With `Cc1cc(-c2nc(-c3ccc(OC(F)(F)F)cc3)n3c2CCO[C@H](C)C3)ccn1` [Example 50] the figure was 14.2 nM. With `Cc1cc(-c2nc(-c3ccc(OC(F)(F)F)cc3)n3c2CCO[C@H](C)C3)cc(C)n1` [Example 51] the figure was 7.8 nM; with `Cc1cc(-c2nc(-c3ccc(Cl)c(C)c3)n3c2CCO[C@H](C)C3)cc(C)n1` [Example 52], 20.5 nM; with `COc1cc(-c2nc(-c3cc(C)nc(C)c3)c3n2C[C@@H](C)OCC3)ccc1C` [Example 53], 21.3 nM. Consider `Cc1cc(-c2nc(-c3ccc(Cl)c(C)c3)n3c2CCO[C@H](C)C3)ccn1` [Example 54], for which the IC50 is 19.4 nM. As to `COc1cc(-c2nc(-c3ccnc(C)c3)c3n2C[C@@H](C)OCC3)ccc1C` [Example 55], the IC50 was found to be 21.9 nM.

`Cc1cc(-c2nc(-c3ccc(Cl)c(F)c3)n3c2CCO[C@H](C)C3)cc(C)n1` [Example 56]: the IC50 stood at 21.9 nM.

`COc1cc(-c2nc(-c3ccc(Cl)c(OC)c3)n3c2CCO[C@H](C)C3)cc(C)n1` [Example 57] yielded an IC50 of 28.5 nM.

The compound `Cc1cc(-c2nc(-c3ccc(Cl)c(F)c3)n3c2CCO[C@H](C)C3)ccn1` [Example 58] showed an IC50 of 41.8 nM. This IC50 and that of the compound before are within 1.5-fold of each other. The result for `COc1ccc(-c2nc(-c3cc(C)nc(C)c3)c3n2C[C@@H](C)OCC3)cc1F` [Example 59] reads 96.3 nM; that for `COc1ccc(-c2nc(-c3ccnc(C)c3)c3n2C[C@@H](C)OCC3)cc1F` [Example 60], 119 nM; that for `Cc1cc(-c2nc(-c3ccc(Cl)cc3)n3c2CCO[C@H](C)C3)cc(C)n1` [Example 61], 21.7 nM. For `Cc1cc(-c2nc(-c3cccc(Cl)c3)n3c2CCO[C@H](C)C3)cc(C)n1` [Example 62], the IC50 came out at 37.7 nM. This IC50 lies about 1.7-fold higher than the previous one.

In turn, `Cc1cc(-c2nc(-c3cccc(Cl)c3)n3c2CCO[C@H](C)C3)ccn1` [Example 63] yielded a half-maximal inhibitory concentration (IC50) of 78.6 nM.

As for `Cc1cc(-c2nc(-c3cccc(OC(F)(F)F)c3)n3c2CCO[C@H](C)C3)cc(C)n1` [Example 64], the IC50 stood at 31.2 nM. For the compound `Cc1cc(-c2nc(-c3ccc(Cl)c(Cl)c3)n3c2CCO[C@H](C)C3)cc(C)n1` [Example 65], the IC50 amounted to 14 nM. Compared with the last compound, the IC50 is about 2.2-fold lower. With `Cc1cc(-c2nc(-c3ccc(Cl)c(Cl)c3)n3c2CCO[C@H](C)C3)ccn1` [Example 66] the figure was 12.6 nM. The result for `Cc1cc(-c2nc(-c3ccc(OC(F)(F)F)c(C)c3)n3c2CCO[C@H](C)C3)cc(C)n1` [Example 67] reads 4.7 nM; that for `Cc1cc(-c2nc(-c3ccc(Cl)c(OC(F)(F)F)c3)n3c2CCO[C@H](C)C3)cc(C)n1` [Example 68], 13.2 nM; that for `Cc1cc(-c2nc(-c3ccc(OC(F)(F)F)cc3)n3c2CCO[C@H](CF)C3)cc(C)n1` [Example 69], 20.9 nM. The result for `Cc1cc(-c2nc(-c3ccc(OC(F)(F)F)cc3)n3c2CCO[C@H](CF)C3)ccn1` [Example 70] reads 25.5 nM; that for `COc1cc(-c2nc(-c3cc(C)nc(C)c3)c3n2C[C@@H](CF)OCC3)ccc1C` [Example 71], 18.9 nM; that for `COc1cc(-c2nc(-c3ccnc(C)c3)c3n2C[C@@H](CF)OCC3)ccc1C` [Example 72], 29.4 nM. `Cc1cc(-c2nc(-c3ccc(Cl)c(C)c3)n3c2CCO[C@H](CF)C3)cc(C)n1` [Example 73] came in with an IC50 of 24.8 nM. With `Cc1cc(-c2nc(-c3ccc(Cl)c(C)c3)n3c2CCO[C@H](CF)C3)ccn1` [Example 74] the figure was 35.3 nM.
